Marks after values point to notes of the source that are not given here.
Assays:
[1] = test system: four clinical isolates of MRSA; experiment: aPDI with CFL irradiation, summary over MRSA isolates; format: cell-based, Staphylococcus aureus
Experimental: In all cases, we observed potent aPDI with bactericidal activities at 1-5 μM (Table 1). The consistent response to Ga-PpIX treatment is encouraging, as variable efficacy between strains is a known problem in antimicrobial photodynamic therapy (Nakonieczna, J. et al., Photodiagn. Photodyn. Ther. 2012, 9, 359-361). […] We note that PpIX is already approved as a photosensitizer for topical treatment of several skin diseases, but its utility is limited by poor photostability.
A 20-W compact fluorescent lightbulb (CFL; Sunlite SL20/BLB) housed in an ellipsoidal reflector dome was used for aPDI, at an emission wavelength at 406 nm and a mean power density of 12.4 mW/cm^2 (after applying a 408-nm shortpass filter). Antimicrobial assays were performed on planktonic bacteria at 10^7 cfu/mL with variable exposure times to CFL irradiation, followed by plating on agar and incubation at 37° C. In a typical experiment, bacterial suspensions were transferred into 96-well plates then treated with 100-μL aliquots of Ga-PpIX or PpIX solution, with final concentrations ranging from 320 to 0.31 μg/mL, followed immediately with CFL irradiation for 5 to 15 minutes. […] Bacterial counts were determined by the drop-plate method using TS-agar plates, and reported in colony-forming units per milliliter (cfu/mL).

[2] = test system: S. aureus (PCI 1203; ATCC 10537); experiment: aPDI with CFL irradiation (406 nm), planktonic bacteria, drop-plate colony count; format: cell-based, Staphylococcus aureus; conditions: for potency relative to dark toxicity (0 min exposure): 3-log reduction
Experimental: The aPDI properties of Ga-PpIX were compared against PpIX, whose photosensitizer activities are well known and whose optical profile is similar to that of Ga-PpIX (FIG. 2).
(§1) All bacterial strains were cultured at 37° C. in an aerobic atmosphere unless otherwise noted. […] Bacterial counts were estimated in units of cfu/mL by plating serial dilutions onto agar plates, followed by incubation for 16 hours at 37° C. […] Further details and variations on iron-deficient culture conditions are provided in Supporting Information.
(§2) Antimicrobial assays were performed on planktonic bacteria at 10^7 cfu/mL with variable exposure times to CFL irradiation, followed by plating on agar and incubation at 37° C. […] The irradiated bacteria were plated onto agar in serial tenfold dilutions (10^7-10^1 cfu/mL); controls included one set of wells without photosensitizer, and one set of wells with photosensitizer but without 15 min irradiation, prior to plating (dark toxicity). Bacterial counts were determined by the drop-plate method using TS-agar plates, and reported in colony-forming units per milliliter (cfu/mL).
(§3) The irradiation source consisted of a 20-W compact fluorescent lightbulb (CFL; Sunlite SL20/BLB) housed in an ellipsoidal reflector dome.

S. aureus (PCI 1203) = experiment: Competitive hemin uptake assay (fluorescence microscopy); format: cell-based, Staphylococcus aureus; conditions: standard conditions (TS media); no background subtraction
S. epidermis (ATCC 155) = experiment: aPDI with CFL irradiation (406 nm), planktonic bacteria, drop-plate colony count; format: cell-based, Staphylococcus epidermidis; conditions: for potency relative to dark toxicity (0 min exposure): 15 min CFL, 3-log reduction
Experimental: as §1, §2, §3

[3] = Photophysical measurements (absorption, fluorescence quantum yield); format: physicochemical
Source text: Hemin chloride and all reagents were obtained from commercial sources, and used as received unless otherwise noted. Dimethyl sulfoxide (DMSO) was distilled over CaH2 under reduced pressure. Deionized water was obtained from an ultrafiltration system (Milli-Q, Millipore) with a resistivity >18 MΩ·cm, and passed through a 0.22-μm filter to remove particulate matter. Absorption spectra were collected on a Varian Cary50 spectrometer; fluorescence emission data were collected on a Cary Eclipse fluorimeter with a gate time of 5 ms. ^1H NMR spectra were obtained in CDCl3 or DMSO-d6 using a Varian 800-MHz spectrometer; all chemical shifts (δ) reported in ppm.
The quantum yield of Ga-PpIX in deaerated DMSO was determined to be 6.3%, using Ru(II)(bipy)3Cl2 in aerated acetonitrile as a standard.

S. aureus [4] = experiment: aPDI with 405-nm LED bar, summary over strains; format: cell-based, Staphylococcus aureus; conditions: 10 seconds, 405-nm light-emitting diode bar (99 mW/cm^2), fluence about 1 J/cm^2
Experimental: (§4) Antibacterial activity assay general protocol: Used LED light to test conditions. Bacteria were grown in TS broth, followed by 3 mM bipyridine in TS broth until log phase. Bacteria were then diluted with PBS, to OD 0.1 (˜10^) and then to ˜10^7 cfu/mL. 100 uL of bacteria were placed in 96 well plates with the appropriate GaPpIX concentration. 2× serial dilutions were then done to obtain other GaPpIX concentrations. Each concentration was done in triplicate. Bacteria were left incubating and irradiating for different amount of times at different light powers or left in the dark. 10× Serial dilutions were done and bacteria were plated for colony counting using the drop-plate technique. Colonies were counted after 24 hours. As reported herein, a 3-log reduction equals measurable antimicrobial action; a 6-log reduction equals total eradication.

HEK cells = experiment: Cytotoxicity against HEK cells; conditions: read-out: IC50 (cytotoxicity)
S. aureus [5] = experiment: Antibacterial activity assay with LED light; format: cell-based, Staphylococcus aureus
Experimental: as §4
Stock solution preparation (AVM-3-36, 10 nm AgNP). Prepared a solution of (AVM-2-273) GaPpIX-apoHb 1 mg/mL in MP H2O, deaerated. Took 10 mL of 10 nm AgNPs, centrifuged at 900 G for 5 min (Beckman, 3100 RPM), took supernantant and added 200 uL of GaPpIXHb. After overnight, centrifuged 3000 RPM g for 5 minutes (Beckman). Took supernantant and centrifuged using a 100 K CentriCon tube at 4000 RPM for 5 minutes, 3×. Added 15 mM borate buffer to NPs. Based on calibration curve, the stock solution is 1.94 ug/mL AgNP, so stock: 79 μg/mL AgNP, 10.37 μg/mL GaPpIXHb, 0.446 μg/mL GaPpIX (refer to AVM-2-293A and AVM-3-3).
The following antibacterial activity measurements were assayed in the presence of AgNP.

[6] = Rish et al. 2007; cited from earlier work
[7] = 0 min (dark), no irradiation (dark toxicity)
[8] = 15 min CFL 406 nm, 12.4 mW/cm^2 (11.2 J/cm^2)

Compound	Antimicrobial activity (minimum 3-log CFU reduction) [2, 7]	Antimicrobial activity (minimum 3-log CFU reduction) [2, 8]	Eradication (6 log reduction) ([2]; 15 min CFL (11.2 J/cm^2))	potency relative to dark toxicity (0 min exposure) ([2]; 15 min CFL)	Eradication (6 log reduction) ([2]; No irradiation (dark toxicity))	Fluorescence after 15 min (S. aureus (PCI 1203))	Fluorescence after 15 min exposure + 1 equiv. hemin (S. aureus (PCI 1203))	Antimicrobial activity (minimum 3-log CFU reduction) (S. epidermis (ATCC 155); [7])	Antimicrobial activity (minimum 3-log CFU reduction) (S. epidermis (ATCC 155); 15 min CFL (11.2 J/cm^2))	potency relative to dark toxicity (0 min exposure) (S. epidermis (ATCC 155))	Eradication (6 log reduction) (S. epidermis (ATCC 155); No irradiation (dark toxicity))	concentration for 3-log reduction (measurable antimicrobial action) (S. aureus [5])	concentration for 6-log reduction (total eradication) (S. aureus [5])	other results
Ga(III)-protoporphyrin [Ga-PpIX (1)]	>60 μM	0.47 μM	7.5 μM	>128x	120 μM	18.09 a.u.	15.08 a.u.	146 μM	0.57 μM	256x	146 μM	59 nM	235 nM	bactericidal activities (aPDI) [1]: 1 to 5 µM; Antimicrobial activity (minimum 3-log CFU reduction) ([2]; 5 min CFL 406 nm, 12.4 mW/cm^2 (3.7 J/cm^2)): 3.75 μM; Eradication (6 log reduction) ([2]; 5 min CFL (3.7 J/cm^2)): 15 μM; potency relative to dark toxicity (0 min exposure) ([2]; 5 min CFL): >16x; concentration for >99.9% reduction ([2]; 15 minutes of CFL irradiation): 470 nM; increase in potency relative to Ga-PpIX dark toxicity (>99.9% reduction) ([2]; 15 minutes of CFL irradiation): 128 fold; increase in potency relative to Ga-PpIX dark toxicity (total eradication, >6 log reduction) ([2]; 15 minutes of CFL irradiation): 16 fold; Eradication (6 log reduction) (S. epidermis (ATCC 155); 15 min CFL (11.2 J/cm^2), listed as Ga-PpIX): 1.1 μM; Eradication (6 log reduction) (S. epidermis (ATCC 155); 15 min CFL (11.2 J/cm^2), listed as GaPpIX (1)): 4.5 μM; bactericidal activity (S. epidermis (ATCC 155); CFL irradiation, clinical isolate from a skin lesion): 570 nM; molar extinction coefficient ε ([3]; DMSO, λmax=410 nm, 0.4-10 μM): 154000 M⁻¹ cm⁻¹; fluorescence quantum yield ([3]; deaerated DMSO, Ru(II)(bipy)3Cl2 in aerated acetonitrile as standard): 6.3%; GaPpIX concentration showing aPDI efficacy (S. aureus [4]): 0.06 to 0.12 µM; IC50 (HEK cells): > 10 µM; molar extinction coefficient, previous reports [6]: 250000 M⁻¹ cm⁻¹
C=CC1=C(C)c2cc3[nH]c(cc4nc(cc5[nH]c(cc1n2)c(C)c5CCC(=O)O)C(CCC(=O)O)=C4C)c(C)c3C=C [PpIX (2), PpIX, reference compound]	36 μM	1.1 μM	2.3 μM	32x	73 μM	11.90 a.u.	10.15 a.u.	>146 μM	4.5 μM	>32x	>146 μM	940 nM	1900 nM	Antimicrobial activity (minimum 3-log CFU reduction) (S. epidermis (ATCC 155); 0 min (dark), no irradiation (dark toxicity), listed as PpIX): >146^d μM; Eradication (6 log reduction) (S. epidermis (ATCC 155); 15 min CFL (11.2 J/cm^2)): 9 μM; Antimicrobial activity (minimum 3-log CFU reduction) (S. epidermis (ATCC 155); 15 min CFL (11.2 J/cm^2), listed as PpIX): 4.6 μM
